Source: US20170291905A1, “ARGININE […] INHIBITORS AND USES THEREOF” (Epizyme, Inc., priority 2014, published 2017)
Counter-ions that a name gives are not always drawn.

These compounds were tested against full-length human PRMT8 isoform 1 (Homo sapiens, UniProt Q9NR22) (assay: PRMT8 biochemical assay (3H-SAM Flashplate, histone H4 31-45 peptide)). Details: 1.5 nM PRMT8, 30 min preincubation, 150 nM peptide.
Excerpt: S-adenosylmethionine (SAM), S-adenosylhomocysteine (SAH), bicine, Tween20, dimethylsulfoxide (DMSO), bovine skin gelatin (BSG), isopropyl-β-D-thiogalactopyranoside (IPTG), and Tris(2-carboxyethyl)phosphine hydrochloride solution (TCEP) were purchased from Sigma-Aldrich at the highest level of purity possible. ^3H-SAM was purchase from American Radiolabeled Chemicals with a specific activity of 80 Ci/mmol. 384-well streptavidin Flashplates were purchased from PerkinElmer.
Peptide representative of human histone H4 residues 31-45 was synthesized with an N-terminal linker-affinity tag motif and a C-terminal amide cap by 21st Century Biochemicals. The peptide was purified by high-performance liquid chromatography (HPLC) to greater than 95% purity and confirmed by liquid chromatography mass spectrometry (LC-MS). The sequence was Biot-Ahx-[…]-amide (SEQ ID NO.:8).
The resulting construct encodes an N-terminal GST tag and a thrombin cleavage sequence
E. coli (BL21(DE3) Gold, Stratagene) made competent by the CaCl2 method were transformed with the PRMT8 construct and ampicillin selection. Protein over-expression was accomplished by growing the PRMT8 expressing E. coli clone and inducing expression with 0.3 mM IPTG at 16° C. The culture was grown for 12 hours, harvested by centrifugation, and stored at −80° C. for purification.
GST-tagged PRMT8 was eluted with 50 mM Tris, 2 mM glutathione, pH 7.8. Pooled fractions were cleaved by thrombin (10U) and dialysed in buffer A. GST was removed by reloading the cleaved protein sample onto glutathione sepharose column and PRMT8 was collected in the flow-through fractions. PRMT8 was purified further by ceramic hydroxyapatite chromatography. The column was washed with 50 mM phosphate buffer, 100 mM NaCl, 5% glycerol, 5 mM […], pH 7.8 and PRMT8 was eluted by 100 mM phosphate in the same buffer. Protein was concentrated and buffer was exchanged to 50 mM Tris, 300 mM NaCl, 10% glycerol, 5 mM β-mercaptoethanol, pH 7.8 by ultrafiltration. The purity of recovered protein was 89%.
General Procedure for PRMT8 Enzyme Assays on Peptide Substrates.
The assays were all performed in a buffer consisting of 20 mM Bicine (pH=7.6), 1 mM TCEP, 0.005% BSG, and 0.002% Tween 20, prepared on the day of use. Compounds in 100% DMSO (1 ul) were spotted into a polypropylene 384-well V-bottom plates (Greiner) using a Platemate Plus outfitted with a 384-channel head (Thermo Scientific). DMSO (1 ul) was added to Columns 11, 12, 23, 24, rows A-H for the maximum signal control and 1 ul of SAH, a known product and inhibitor of PRMT8, was added to columns 11, 12, 23, 24, rows I-P for the minimum signal control. A cocktail (40 ul) containing the PRMT8 enzyme was added by Multidrop Combi (Thermo-Fisher). The compounds were allowed to incubate with PRMT8 for 30 min at room temperature, then a cocktail (10 ul) containing ^3H-SAM and peptide was added to initiate the reaction (final volume=51 ul). The final concentrations of the components were as follows: PRMT8 was 1.5 nM, ^3H-SAM was 50 nM, non-radiolabeled SAM was 550 nM, peptide was 150 nM, SAH in the minimum signal control wells was 1 mM, and the DMSO concentration was 2%. The assays were stopped by the addition of non-radiolabeled SAM (10 ul) to a final concentration of 400 uM, which dilutes the ^3H-SAM to a level where its incorporation into the peptide substrate is no longer detectable. 50 ul of the reaction in the 384-well polypropylene plate was then transferred to a 384-well Flashplate and the biotinylated peptides were allowed to bind to the streptavidin surface for at least 1 hour before being washed once with 0.1% Tween20 in a Biotek ELx405 plate washer. The plates were then read in a PerkinElmer TopCount plate reader to measure the quantity of ^3H-labeled peptide bound to the Flashplate surface, measured as disintegrations per minute (dpm) or alternatively, referred to as counts per minute (cpm). […]

Chain of full-length human PRMT8 isoform 1 (Q9NR22 whole entry, canonical isoform): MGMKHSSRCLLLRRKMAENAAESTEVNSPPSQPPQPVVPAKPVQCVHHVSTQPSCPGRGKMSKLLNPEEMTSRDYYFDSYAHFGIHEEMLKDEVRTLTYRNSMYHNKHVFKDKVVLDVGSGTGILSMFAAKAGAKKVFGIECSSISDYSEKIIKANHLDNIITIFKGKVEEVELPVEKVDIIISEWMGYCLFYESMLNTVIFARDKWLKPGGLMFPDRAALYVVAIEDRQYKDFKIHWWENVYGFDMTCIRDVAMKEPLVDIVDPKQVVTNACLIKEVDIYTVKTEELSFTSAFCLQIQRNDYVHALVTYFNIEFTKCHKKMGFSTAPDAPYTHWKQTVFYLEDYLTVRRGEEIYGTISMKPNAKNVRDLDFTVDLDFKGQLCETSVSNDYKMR

| SMILES | IC50 [nM] |
| --- | --- |
| CCC1CC(c2n[nH]cc2CN(C)CCNC)CC(C(=O)NCCOC)C1(C)C (stereo not shown) [compound 21, 3-ethyl-N-(2-methoxyethyl)-2,2-dimethyl-5-[4-([methyl[2-(methylamino)ethyl]amino]methyl)-1H-pyrazol-3-yl]cyclohexane-1-carboxamide dihydrochloride] | 614 |
| CCC1(CC)CC2(CCC(c3n[nH]cc3CN(C)CCNC)CC2)N(C)C1=O (stereo not shown) [compound 22, 3,3-diethyl-1-methyl-8-(4-((methyl(2-(methylamino)ethyl)amino)methyl)-1H-pyrazol-3-yl)-1-azaspiro[4.5]decan-2-one] | 20.3 |
| CNCCN(C)Cc1c[nH]nc1[C@H]1CC[C@@H](COCC(F)(F)F)CC1 [compound 23, N1,N2-dimethyl-N1-((3-((1s,4s)-4-((2,2,2-trifluoroethoxy)methyl)cyclohexyl)-1H-pyrazol-4-yl)methyl)ethane-1,2-diamine] | 91.8 |
| CNCCN(C)Cc1c[nH]nc1[C@H]1CC[C@H](COCC(F)(F)F)CC1 [compound 24, N1,N2-dimethyl-N1-((3-((1r,4r)-4-((2,2,2-trifluoroethoxy)methyl)cyclohexyl)-1H-pyrazol-4-yl)methyl)ethane-1,2-diamine] | 18.3 |
| CNCCN(C)Cc1cn(C)nc1C1CCC(C)(C)[C@@H](C(=O)NCC(C)C)C1 (stereo partly shown) [compound 25] | 2790 |
| CNCCNCc1c[nH]nc1[C@H]1CC[C@@]2(CC1)CC(C)(C)CO2 [compound 28, N1-((3-((5s,8s)-3,3-dimethyl-1-oxaspiro[4.5]decan-8-yl)-1H-pyrazol-4-yl)methyl)-N2-methylethane-1,2-diamine] | 20.7 |
| CNCCNCc1c[nH]nc1[C@H]1CC[C@]2(CC1)CC(C)(C)CO2 [compound 29, N1-((3-((5r,8r)-3,3-dimethyl-1-oxaspiro[4.5]decan-8-yl)-1H-pyrazol-4-yl)methyl)-N2-methylethane-1,2-diamine] | 258 |
| CNCCN(C)Cc1c[nH]nc1C1CCC(C)(C)[C@H](COCCCOC)C1 (stereo partly drawn) [compound 30, {2-[({3-[(3R)-3-[(3-methoxypropoxy)methyl]-4,4-dimethylcyclohexyl]-1H-pyrazol-4-yl}methyl)(methyl)amino]ethyl}(methyl)amine] | 187 |
| CCOC[C@@H]1CC(c2n[nH]cc2CN(C)CCNC)CCC1(C)C (stereo partly drawn) [compound 31, {2-[({3-[(3R)-3-(ethoxymethyl)-4,4-dimethylcyclohexyl]-1H-pyrazol-4-yl}methyl)(methyl)amino]ethyl}(methyl)amine] | 325 |
| CNCCN(C)Cc1c[nH]nc1C1CCC(C)(C)[C@H](CO)C1 (stereo partly drawn) [compound 32, [(1R)-2,2-dimethyl-5-[4-({methyl[2-(methylamino)ethyl]amino}methyl)-1H-pyrazol-3-yl]cyclohexyl]methanol] | 291 |
| CCC1(CC)C[C@]2(CC[C@H](c3n[nH]cc3CN(C)CCNC)CC2)OC1=O [compound 33, (5s,8s)-3,3-diethyl-8-(4-((methyl(2-(methylamino)ethyl)amino)methyl)-1H-pyrazol-3-yl)-1-oxaspiro[4.5]decan-2-one] | 95.8 |
| CCC1(CC)C[C@]2(CC[C@@H](c3n[nH]cc3CN(C)CCNC)CC2)OC1=O [compound 34, (5r,8r)-3,3-diethyl-8-(4-((methyl(2-(methylamino)ethyl)amino)methyl)-1H-pyrazol-3-yl)-1-oxaspiro[4.5]decan-2-one] | 146 |
| CNCCN(C)Cc1c[nH]nc1C1CCC(C)(C)[C@H](COCCOC)C1 (stereo partly drawn) [compound 35, {2-[({3-[(3R)-3-[(2-methoxyethoxy)methyl]-4,4-dimethylcyclohexyl]-1H-pyrazol-4-yl}methyl)(methyl)amino]ethyl}(methyl)amine] | 110 |
| CCCOCC1(COCCC)CCC(c2n[nH]cc2CN(C)CCNC)CC1 [compound 36, N^1-((3-(4,4-bis(propoxymethyl)cyclohexyl)-1H-pyrazol-4-yl)methyl)-N^1,N^2-dimethylethane-1,2-diamine] | 12.4 |
| CCOCC1(COCC)CC=C(c2n[nH]cc2CN(C)CCNC)CC1 [compound 60] | 22.5 |

Further lines, results first:

| IC50 [nM] | SMILES |
| --- | --- |
| 45.5 | CC[C@]12CC[C@](CC)(C[C@H](c3n[nH]cc3CN(C)CCNC)C1)O2 [compound 37, N1-((3-((1R,3r,5S)-1,5-diethyl-8-oxabicyclo[3.2.1]octan-3-yl)-1H-pyrazol-4-yl)methyl)-N1,N2-dimethylethane-1,2-diamine] |
| 177 | CC[C@]12CC[C@](CC)(C[C@@H](c3n[nH]cc3CN(C)CCNC)C1)O2 [compound 38, N1-((3-((1R,3s,5S)-1,5-diethyl-8-oxabicyclo[3.2.1]octan-3-yl)-1H-pyrazol-4-yl)methyl)-N1,N2-dimethylethane-1,2-diamine] |
| 32.2 | CNCCN(C)Cc1ccnn1[C@H]1CC[C@]2(CC1)CC(C)(C)CO2 [compound 50, N1-((1-((5r,8r)-3,3-dimethyl-1-oxaspiro[4.5]decan-8-yl)-1H-pyrazol-5-yl)methyl)-N1,N2-dimethylethane-1,2-diamine] |
| 14.2 | Cc1[nH]nc([C@H]2CC[C@@]3(CC2)CC(C)(C)CO3)c1CN(C)CCN [compound 51, N1-((3-((5s,8s)-3,3-dimethyl-1-oxaspiro[4.5]decan-8-yl)-5-methyl-1H-pyrazol-4-yl)methyl)-N1-methylethane-1,2-diamine] |
| 23.1 | Cc1[nH]nc([C@H]2CC[C@]3(CC2)CC(C)(C)CO3)c1CN(C)CCN [compound 52, N1-((3-((5r,8r)-3,3-dimethyl-1-oxaspiro[4.5]decan-8-yl)-5-methyl-1H-pyrazol-4-yl)methyl)-N1-methylethane-1,2-diamine] |
| 32.7 | CNCCN(C)Cc1c(C)[nH]nc1[C@H]1CC[C@@]2(CC1)CC(C)(C)CO2 [compound 57] |
| 55.1 | CNCCN(C)Cc1c(C)[nH]nc1[C@H]1CC[C@]2(CC1)CC(C)(C)CO2 [compound 58] |
| 17.5 | Cc1[nH]nc(C2CCC3(CC2)CC(C)(C)CO3)c1CN(C)CCN (stereo not shown) [compound 59] |
| 9.08 | CNCCN(C)Cc1scnc1[C@H]1CC[C@@]2(CC1)CC(C)(C)CO2 [compound 62] |
| 25.3 | CNCCN(C)Cc1nn(C)nc1[C@H]1CC[C@@]2(CC1)CC(C)(C)CO2 [compound 64] |
| > 10000 | CNCCN(C)Cc1cnnn1[C@H]1CC[C@@]2(CC1)CC(C)(C)CO2 [compound 65] |
| 19.8 | CNCCN(C)Cc1nn[nH]c1[C@H]1CC[C@@]2(CC1)CC(C)(C)CO2 [compound 67] |
| 3480 | CNCCN(C)Cc1nncn1[C@H]1CC[C@@]2(CC1)CC(C)(C)CO2 [compound 68] |
| 273 | CNCCN(C)Cc1nccn1[C@H]1CC[C@@]2(CC1)CC(C)(C)CO2 [compound 69] |
| 4320 | CNCCN(C)Cc1nnc(C)n1[C@H]1CC[C@@]2(CC1)CC(C)(C)CO2 [compound 71] |
| 15.7 | CNCCN(C)Cc1cncn1[C@H]1CC[C@@]2(CC1)CC(C)(C)CO2 [compound 76] |
| 27.7 | CNCCN(C)Cc1nc(C)sc1[C@H]1CC[C@@]2(CC1)CC(C)(C)CO2 [compound 77] |
| 33.8 | CNCCN(C)Cc1sc(C)nc1[C@H]1CC[C@@]2(CC1)CC(C)(C)CO2 [compound 78] |
| 12.1 | CN(CCN)Cc1nn(C)cc1[C@H]1CC[C@@]2(CC1)CC(C)(C)CO2 [compound 80] |
| 30.9 | CNCCN(C)Cc1nn(C)cc1[C@H]1CC[C@@]2(CC1)CC(C)(C)CO2 [compound 81] |
| 18.5 | CNCCN(C)Cc1ncsc1[C@H]1CC[C@@]2(CC1)CC(C)(C)CO2 [compound 83] |
| 24.2 | CNCCN(C)Cc1scnc1[C@H]1CC[C@]2(CC1)CC(C)(C)CO2 [compound 84] |
